Experimental data from patent US6852673B2, “Herbicidal pyridine compounds” (BASF Aktiengesellschaft, priority 1998, dated 2005).

Assays:
Type in all cases: in vivo
[1] = tested on: Triticum aestivum (TRZAW); test: Post-emergence herbicidal evaluation, winter wheat; conditions: rated 2 to 4 weeks after treatment
Outline: (§1)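 Each compound, dissolved in acetone and diluted with water, is sprayed onto seedling plants at dosages equivalent to about 0.03 to 0.4 kg per hectare per pot. The plants then stay on greenhouse benches under usual practice and are scored between 2 and 4 weeks later, where 9 means death and 0 means growth like untreated controls.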

[2] = tested on: Alopecurus myosuroides (ALOMY); test: Post-emergence herbicidal evaluation, black grass; conditions: rated 2 to 4 weeks after treatment
Outline: as §1

[3] = tested on: Ambrosia artemiisifolia (AMBEL); test: Pre-emergence herbicidal evaluation, ragweed
Outline: (§2)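 Rating done 2–4 weeks post-treatment in the greenhouse. Compound, in aqueous acetone, was sprayed onto soil surface right after sowing, at rates equivalent to about 0.0125–0.4 kg per hectare, before crop or weed emergence.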

Galium aparine (GALAP) = test: Pre-emergence herbicidal evaluation, cleaver
Outline: as §2

Glycine max (GLXMA) [4] = test: Post-emergence herbicidal evaluation, soyabeans; conditions: rated 2 to 4 weeks after treatment
Outline: as §1

Solanum nigrum (SOLNI) = test: Post-emergence herbicidal evaluation, black nightshade; conditions: rated 2 to 4 weeks after treatment
Outline: as §1

Stellaria media (STEME) [5] = test: Pre-emergence herbicidal evaluation, chickweed
Outline: as §2

[6] = tested on: Echinochloa grus galli (ECHCG); test: Pre-emergence herbicidal evaluation, barnyard grass
Outline: as §2

Zea mays (ZEAMX) [7] = test: Post-emergence herbicidal evaluation, maize; conditions: rated 2 to 4 weeks after treatment
Outline: as §1

[8] = tested on: Triticum aestivum (TRZAW); test: Pre-emergence herbicidal evaluation, winter wheat
Outline: as §2

[9] = tested on: Echinochloa grus galli (ECHCG); test: Post-emergence herbicidal evaluation, barnyard grass; conditions: rated 2 to 4 weeks after treatment
Outline: as §1

Lamium purpureum (LAMPU) [10] = test: Post-emergence herbicidal evaluation, purple deadnettle; conditions: rated 2 to 4 weeks after treatment
Outline: as §1

Hordeum vulgare (HORVW) = test: Post-emergence herbicidal evaluation, winter barley; conditions: rated 2 to 4 weeks after treatment
Outline: as §1

[11] = tested on: Ipomoea hederacea (IPOHE); test: Post-emergence herbicidal evaluation, morning glory; conditions: rated 2 to 4 weeks after treatment
Outline: as §1

[12] = tested on: Abutilon theophrasti (ABUTH); test: Pre-emergence herbicidal evaluation, velvetleaf
Outline: as §2

[13] = tested on: Alopecurus myosuroides (ALOMY); test: Pre-emergence herbicidal evaluation, black grass
Outline: as §2

Setaria viridis (SETVI) [14] = test: Pre-emergence herbicidal evaluation, green foxtail
Outline: as §2

Zea mays (ZEAMX) [15] = test: Pre-emergence herbicidal evaluation, maize
Outline: as §2

Lamium purpureum (LAMPU) [16] = test: Pre-emergence herbicidal evaluation, purple deadnettle
Outline: as §2

Oryza sativum (ORYSA) = test: Pre-emergence herbicidal evaluation, rice
Outline: as §2

Stellaria media (STEME) [17] = test: Post-emergence herbicidal evaluation, chickweed; conditions: rated 2 to 4 weeks after treatment
Outline: as §1

[18] = tested on: Matricaria inodora (MATIN); test: Post-emergence herbicidal evaluation, mayweed; conditions: rated 2 to 4 weeks after treatment
Outline: as §1

[19] = tested on: Ambrosia artemiisifolia (AMBEL); test: Post-emergence herbicidal evaluation, ragweed; conditions: rated 2 to 4 weeks after treatment
Outline: as §1

[20] = tested on: Digitaria sanguinalis (DIGSA); test: Post-emergence herbicidal evaluation, large crabgrass; conditions: rated 2 to 4 weeks after treatment
Outline: as §1

Glycine max (GLXMA) [21] = test: Pre-emergence herbicidal evaluation, soyabeans
Outline: as §2

Setaria viridis (SETVI) [22] = test: Post-emergence herbicidal evaluation, green foxtail; conditions: for SETVI rating: rated 2 to 4 weeks after treatment
Outline: as §1

Cc1cc(OCC(F)(F)C(F)(F)C(F)(F)C(F)F)nc(Oc2cc(C(F)(F)F)nn2C)c1 [Example 8]
4 (4 - Injury): STEME rating (Stellaria media (STEME) [5]; dose 0.025 kg/ha) | GLXMA rating (Glycine max (GLXMA) [21]; dose 0.4 kg/ha)
0 (0 - No effect): TRZAW rating ([8]; dose 0.013 kg/ha) | TRZAW rating ([8]; dose 0.025 kg/ha) | ABUTH rating ([12]; dose 0.013 kg/ha) | ORYSA rating (Oryza sativum (ORYSA); dose 0.013 kg/ha) | ORYSA rating (Oryza sativum (ORYSA); dose 0.025 kg/ha) | GLXMA rating (Glycine max (GLXMA) [21]; dose 0.013 kg/ha)
2 (2 - Slight effect): TRZAW rating ([1]; dose 0.03 kg/ha) | TRZAW rating ([1]; dose 0.1 kg/ha) | ALOMY rating ([2]; dose 0.03 kg/ha) | ECHCG rating ([9]; dose 0.03 kg/ha) | HORVW rating (Hordeum vulgare (HORVW); dose 0.03 kg/ha) | ZEAMX rating (Zea mays (ZEAMX) [15]; dose 0.4 kg/ha) | GLXMA rating (Glycine max (GLXMA) [21]; dose 0.1 kg/ha)
1 (1 - Trace effect): GALAP rating (Galium aparine (GALAP); dose 0.013 kg/ha) | GALAP rating (Galium aparine (GALAP); dose 0.025 kg/ha) | STEME rating (Stellaria media (STEME) [5]; dose 0.013 kg/ha) | ECHCG rating ([6]; dose 0.013 kg/ha) | ECHCG rating ([6]; dose 0.025 kg/ha) | ZEAMX rating (Zea mays (ZEAMX) [7]; dose 0.03 kg/ha) | ZEAMX rating (Zea mays (ZEAMX) [7]; dose 0.1 kg/ha) | TRZAW rating ([8]; dose 0.1 kg/ha) | ABUTH rating ([12]; dose 0.025 kg/ha) | ALOMY rating ([13]; dose 0.013 kg/ha) | ALOMY rating ([13]; dose 0.025 kg/ha) | SETVI rating (Setaria viridis (SETVI) [14]; dose 0.013 kg/ha) | ZEAMX rating (Zea mays (ZEAMX) [15]; dose 0.013 kg/ha) | ZEAMX rating (Zea mays (ZEAMX) [15]; dose 0.025 kg/ha) | ZEAMX rating (Zea mays (ZEAMX) [15]; dose 0.1 kg/ha) | ORYSA rating (Oryza sativum (ORYSA); dose 0.1 kg/ha) | ORYSA rating (Oryza sativum (ORYSA); dose 0.4 kg/ha) | GLXMA rating (Glycine max (GLXMA) [21]; dose 0.025 kg/ha)
good selectivity: selectivity in maize (Zea mays (ZEAMX) [15])
effective: grass control such as Setaria virides (Setaria viridis (SETVI) [22]; in barley at crop selective doses)
6 (6 - Herbicidal effect): GALAP rating (Galium aparine (GALAP); dose 0.1 kg/ha) | ECHCG rating ([6]; dose 0.1 kg/ha) | SETVI rating (Setaria viridis (SETVI) [22]; dose 0.1 kg/ha)
5 (5 - Definite injury): AMBEL rating ([3]; dose 0.013 kg/ha) | GLXMA rating (Glycine max (GLXMA) [4]; dose 0.03 kg/ha) | SOLNI rating (Solanum nigrum (SOLNI); dose 0.1 kg/ha) | ECHCG rating ([9]; dose 0.1 kg/ha) | STEME rating (Stellaria media (STEME) [17]; dose 0.1 kg/ha) | AMBEL rating ([19]; dose 0.03 kg/ha)
8 (8 - Approaching complete kill): ALOMY rating ([2]; dose 0.4 kg/ha) | AMBEL rating ([3]; dose 0.1 kg/ha) | AMBEL rating ([3]; dose 0.4 kg/ha) | GALAP rating (Galium aparine (GALAP); dose 0.4 kg/ha) | GLXMA rating (Glycine max (GLXMA) [4]; dose 0.4 kg/ha) | SOLNI rating (Solanum nigrum (SOLNI); dose 0.4 kg/ha) | ECHCG rating ([6]; dose 0.4 kg/ha) | ECHCG rating ([9]; dose 0.4 kg/ha) | LAMPU rating (Lamium purpureum (LAMPU) [10]; dose 0.03 kg/ha) | LAMPU rating (Lamium purpureum (LAMPU) [10]; dose 0.1 kg/ha) | ALOMY rating ([13]; dose 0.4 kg/ha) | LAMPU rating (Lamium purpureum (LAMPU) [16]; dose 0.013 kg/ha) | LAMPU rating (Lamium purpureum (LAMPU) [16]; dose 0.025 kg/ha) | STEME rating (Stellaria media (STEME) [17]; dose 0.4 kg/ha) | AMBEL rating ([19]; dose 0.1 kg/ha) | AMBEL rating ([19]; dose 0.4 kg/ha) | DIGSA rating ([20]; dose 0.03 kg/ha) | SETVI rating (Setaria viridis (SETVI) [22]; dose 0.4 kg/ha)
7 (7 - Good herbicidal effect): ALOMY rating ([2]; dose 0.1 kg/ha) | AMBEL rating ([3]; dose 0.025 kg/ha) | GLXMA rating (Glycine max (GLXMA) [4]; dose 0.1 kg/ha) | IPOHE rating ([11]; dose 0.03 kg/ha) | ABUTH rating ([12]; dose 0.1 kg/ha) | ALOMY rating ([13]; dose 0.1 kg/ha)
3 (3 - Moderate effect): TRZAW rating ([1]; dose 0.4 kg/ha) | SOLNI rating (Solanum nigrum (SOLNI); dose 0.03 kg/ha) | ZEAMX rating (Zea mays (ZEAMX) [7]; dose 0.4 kg/ha) | TRZAW rating ([8]; dose 0.4 kg/ha) | HORVW rating (Hordeum vulgare (HORVW); dose 0.1 kg/ha) | HORVW rating (Hordeum vulgare (HORVW); dose 0.4 kg/ha) | SETVI rating (Setaria viridis (SETVI) [14]; dose 0.025 kg/ha) | STEME rating (Stellaria media (STEME) [17]; dose 0.03 kg/ha) | SETVI rating (Setaria viridis (SETVI) [22]; dose 0.03 kg/ha)
9 (9 - Complete kill): STEME rating (Stellaria media (STEME) [5]; dose 0.1 kg/ha) | STEME rating (Stellaria media (STEME) [5]; dose 0.4 kg/ha) | LAMPU rating (Lamium purpureum (LAMPU) [10]; dose 0.4 kg/ha) | IPOHE rating ([11]; dose 0.1 kg/ha) | IPOHE rating ([11]; dose 0.4 kg/ha) | ABUTH rating ([12]; dose 0.4 kg/ha) | SETVI rating (Setaria viridis (SETVI) [14]; dose 0.1 kg/ha) | SETVI rating (Setaria viridis (SETVI) [14]; dose 0.4 kg/ha) | LAMPU rating (Lamium purpureum (LAMPU) [16]; dose 0.1 kg/ha) | LAMPU rating (Lamium purpureum (LAMPU) [16]; dose 0.4 kg/ha) | MATIN rating ([18]; dose 0.03 kg/ha) | MATIN rating ([18]; dose 0.1 kg/ha) | MATIN rating ([18]; dose 0.4 kg/ha) | DIGSA rating ([20]; dose 0.1 kg/ha) | DIGSA rating ([20]; dose 0.4 kg/ha)
